# Measurements reported in PubChem BioAssay (NCI).
#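 Protocol summary: plate cells (96-well), add compound at 5 concentrations, incubate 48 h, interpolate endpoints linearly. GI50: concentration for 50% inhibition of growth. The concentration for full growth arrest is given as TGI.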
# Legend:
# Assay in all cases: NCI-60 cell line screen, 48 h
# SK-MEL-28 melanoma = system: SK-MEL-28 melanoma
# DU-145 prostate = system: DU-145 prostate
# MALME-3M melanoma = system: MALME-3M melanoma
# EKVX NSCLC = system: EKVX NSCLC
# UACC-257 melanoma = system: UACC-257 melanoma
# RPMI-8226 leukemia = system: RPMI-8226 leukemia
# COLO 205 colon = system: COLO 205 colon
# NCI-H460 lung = system: NCI-H460 lung
# SK-MEL-2 melanoma = system: SK-MEL-2 melanoma
# HOP-92 NSCLC = system: HOP-92 NSCLC
# PC-3 prostate = system: PC-3 prostate
# NCI-H23 lung = system: NCI-H23 lung
# MDA-MB-231 breast = system: MDA-MB-231 breast
# ACHN renal = system: ACHN renal
# HCT-116 colon = system: HCT-116 colon
# SN12C renal = system: SN12C renal
# K-562 leukemia = system: K-562 leukemia
# UO-31 renal = system: UO-31 renal
# A549 NSCLC = system: A549 NSCLC
# OVCAR-8 ovarian = system: OVCAR-8 ovarian
# SR leukemia = system: SR leukemia
# A498 renal = system: A498 renal
# HCC-2998 colon = system: HCC-2998 colon
# M14 melanoma = system: M14 melanoma
# MCF7 breast = system: MCF7 breast
# KM12 colon = system: KM12 colon
# LOX IMVI melanoma = system: LOX IMVI melanoma
# BT-549 breast = system: BT-549 breast
# TK-10 renal = system: TK-10 renal
# RXF 393 renal = system: RXF 393 renal
# 786-0 renal = system: 786-0 renal
# SK-MEL-5 melanoma = system: SK-MEL-5 melanoma
# NCI/ADR-RES ovarian = system: NCI/ADR-RES ovarian
# SW-620 colon = system: SW-620 colon
# SK-OV-3 ovarian = system: SK-OV-3 ovarian
# CAKI-1 renal = system: CAKI-1 renal
# HL-60(TB) leukemia = system: HL-60(TB) leukemia
# HS 578T breast = system: HS 578T breast
# IGROV1 ovarian = system: IGROV1 ovarian
# OVCAR-4 ovarian = system: OVCAR-4 ovarian
# NCI-H522 lung = system: NCI-H522 lung
# OVCAR-5 ovarian = system: OVCAR-5 ovarian
# HCT-15 colon = system: HCT-15 colon
# UACC-62 melanoma = system: UACC-62 melanoma
# MDA-MB-435 = system: MDA-MB-435
# HOP-62 NSCLC = system: HOP-62 NSCLC
# T-47D breast = system: T-47D breast
# NCI-H226 lung = system: NCI-H226 lung
# MOLT-4 leukemia = system: MOLT-4 leukemia
# HT29 colon = system: HT29 colon
# CCRF-CEM leukemia = system: CCRF-CEM leukemia
# OVCAR-3 ovarian = system: OVCAR-3 ovarian
smiles,measurement,setting,value
CC(=O)Nc1ccc(S(=O)(=O)c2ccc(NC(C)=O)cc2)cc1,GI50,SK-MEL-28 melanoma,> 100 µM
same,TGI,SK-MEL-28 melanoma,> 100 µM
same,GI50,DU-145 prostate,> 100 µM
same,TGI,DU-145 prostate,> 100 µM
same,GI50,MALME-3M melanoma,34.5 µM
same,TGI,MALME-3M melanoma,> 100 µM
same,GI50,EKVX NSCLC,64 µM
same,TGI,EKVX NSCLC,> 100 µM
same,GI50,UACC-257 melanoma,> 100 µM
same,TGI,UACC-257 melanoma,> 100 µM
same,GI50,RPMI-8226 leukemia,> 100 µM
same,TGI,RPMI-8226 leukemia,> 100 µM
same,GI50,COLO 205 colon,> 100 µM
same,TGI,COLO 205 colon,> 100 µM
same,GI50,NCI-H460 lung,> 100 µM
same,TGI,NCI-H460 lung,> 100 µM
same,GI50,SK-MEL-2 melanoma,> 100 µM
same,TGI,SK-MEL-2 melanoma,> 100 µM
same,GI50,HOP-92 NSCLC,> 100 µM
same,TGI,HOP-92 NSCLC,> 100 µM
same,GI50,PC-3 prostate,> 100 µM
same,TGI,PC-3 prostate,> 100 µM
same,GI50,NCI-H23 lung,> 100 µM
same,TGI,NCI-H23 lung,> 100 µM
same,GI50,MDA-MB-231 breast,> 100 µM
same,TGI,MDA-MB-231 breast,> 100 µM
same,GI50,ACHN renal,> 100 µM
same,TGI,ACHN renal,> 100 µM
same,GI50,HCT-116 colon,> 100 µM
same,TGI,HCT-116 colon,> 100 µM
same,GI50,SN12C renal,> 100 µM
same,TGI,SN12C renal,> 100 µM
same,GI50,K-562 leukemia,> 100 µM
same,TGI,K-562 leukemia,> 100 µM
same,GI50,UO-31 renal,> 100 µM
same,TGI,UO-31 renal,> 100 µM
same,GI50,A549 NSCLC,> 100 µM
same,TGI,A549 NSCLC,> 100 µM
same,GI50,OVCAR-8 ovarian,> 100 µM
same,TGI,OVCAR-8 ovarian,> 100 µM
same,GI50,SR leukemia,> 100 µM
same,TGI,SR leukemia,> 100 µM
same,GI50,A498 renal,81.4 µM
same,TGI,A498 renal,> 100 µM
same,GI50,HCC-2998 colon,> 100 µM
same,TGI,HCC-2998 colon,> 100 µM
same,GI50,M14 melanoma,> 100 µM
same,TGI,M14 melanoma,> 100 µM
same,GI50,MCF7 breast,> 100 µM
same,TGI,MCF7 breast,> 100 µM
same,GI50,KM12 colon,> 100 µM
same,TGI,KM12 colon,> 100 µM
same,GI50,LOX IMVI melanoma,> 100 µM
same,TGI,LOX IMVI melanoma,> 100 µM
same,GI50,BT-549 breast,> 100 µM
same,TGI,BT-549 breast,> 100 µM
same,GI50,TK-10 renal,> 100 µM
same,TGI,TK-10 renal,> 100 µM
same,GI50,RXF 393 renal,> 100 µM
same,TGI,RXF 393 renal,> 100 µM
same,GI50,786-0 renal,> 100 µM
same,TGI,786-0 renal,> 100 µM
same,GI50,SK-MEL-5 melanoma,> 100 µM
same,TGI,SK-MEL-5 melanoma,> 100 µM
same,GI50,NCI/ADR-RES ovarian,> 100 µM
same,TGI,NCI/ADR-RES ovarian,> 100 µM
same,GI50,SW-620 colon,> 100 µM
same,TGI,SW-620 colon,> 100 µM
same,GI50,SK-OV-3 ovarian,> 100 µM
same,TGI,SK-OV-3 ovarian,> 100 µM
same,GI50,CAKI-1 renal,> 100 µM
same,TGI,CAKI-1 renal,> 100 µM
same,GI50,HL-60(TB) leukemia,> 100 µM
same,TGI,HL-60(TB) leukemia,> 100 µM
same,GI50,HS 578T breast,> 100 µM
same,TGI,HS 578T breast,> 100 µM
same,GI50,IGROV1 ovarian,> 100 µM
same,TGI,IGROV1 ovarian,> 100 µM
same,GI50,OVCAR-4 ovarian,> 100 µM
same,TGI,OVCAR-4 ovarian,> 100 µM
same,GI50,NCI-H522 lung,> 100 µM
same,TGI,NCI-H522 lung,> 100 µM
same,GI50,OVCAR-5 ovarian,> 100 µM
same,TGI,OVCAR-5 ovarian,> 100 µM
same,GI50,HCT-15 colon,> 100 µM
same,TGI,HCT-15 colon,> 100 µM
same,GI50,UACC-62 melanoma,> 100 µM
same,TGI,UACC-62 melanoma,> 100 µM
same,GI50,MDA-MB-435,> 100 µM
same,TGI,MDA-MB-435,> 100 µM
same,GI50,HOP-62 NSCLC,> 100 µM
same,TGI,HOP-62 NSCLC,> 100 µM
same,GI50,T-47D breast,> 100 µM
same,TGI,T-47D breast,> 100 µM
same,GI50,NCI-H226 lung,> 100 µM
same,TGI,NCI-H226 lung,> 100 µM
same,GI50,MOLT-4 leukemia,> 100 µM
same,TGI,MOLT-4 leukemia,> 100 µM
same,GI50,HT29 colon,> 100 µM
same,TGI,HT29 colon,> 100 µM
same,GI50,CCRF-CEM leukemia,> 100 µM
same,TGI,CCRF-CEM leukemia,> 100 µM
same,GI50,OVCAR-3 ovarian,61.8 µM
same,TGI,OVCAR-3 ovarian,> 100 µM
